The source of these data is US9724337B2, “AG-205 for the treatment of breast cancer” (University of Kentucky Research Foundation, priority 2009, dated 2017).

One series relates to HCC827. As to the kind of experiment: AG-205 viability assay in HCC827 cells. In kind it is cell-based. The method, then: (§1) Tissue culture. MDA-MB-468 cells were a kind gift from Dr. Rina Plattner of the University of Kentucky and were maintained in medium consisting of Dulbecco's Modified Eagle Medium containing 10% serum supreme (Fisher) and antibiotics. Cells were grown at 37° C. in 5% CO2 in air. A549 and HCC827 lung cancer cells, as well as SK-Br-3 breast cancer cells were obtained from the ATCC (American Type Culture Collection) and were grown under the same conditions. The H1650 lung cancer cell line was a kind gift from Dr. Heinz Kohler of the University of Kentucky. The Pgrmc1 ligand AG-205 was purchased from Timtec, Inc. The EGFR inhibitor AG1478 was from Biomol, Inc. and was used at a concentration range of 0.8-40 μM.
Proliferation, anchorage-independent growth and migration assays. For growth curves, cells were plated in 24 well dishes and grown in 10% serum-containing medium. […] Following the harvest of the final time point, the cells from each time point were counted using a Bright-line hemocytometer (Hausser Scientific).
(§2) MTT viability assays were performed as described previously. […] The cells were then incubated with 0.5 mg/ml of 3-[4,5-dimethylthiazol-2-y]-2,5-diphenyltetrazolium bromide for 1.5 hours, at which time the media was removed, the precipitated crystals were dissolved in dimethyl sulfoxide, and the absorbance at 590 nm was measured using a Bio-Tek μQuant spectrophotometer.

Series [1] relates to A549 cells. Kind of series: FACS cell cycle analysis. It counts as cell-based, human. The settings on record: triplicate FACS analysis, AG-205-treated cells. The method, then: (A) Graph of triplicate FACS analysis. […] (B) Protein expression was analyzed by western blot for Pgrmc1 (top) and ku70 (bottom). Cells were treated with 0 (lanes 1), 2 (lanes 2), 10 (lanes 3) or 50 (lanes 4) μM AG-205 for 24 hours. […] (C-D) The panels show western blots of phosphorylated ERK1/2 (upper panels) and total ERK1/2 (lower panels) The lanes in panel C are A549/con (lane 1), A549/RNAi (lane 2), A549/LacZ (lane 3) and A549/PGR-hbd cells (lane 4) following 48 hours serum starvation. The cells infected with adenovirus were similar to those described in FIG. 3, panels C and D. In panel D, A549 cells were treated with vehicle (lane 1) or 20 μM AG-205 (lane 2) for 24 hours in serum-free media. (E) A549/con (solid line) or A549/RNAi (dashed line) cells were treated with increasing doses of AG-205 for 72 hours and viability was measured by counting, and “% viability” refers to the cell number relative to the untreated control. […] Percent viability was determined by cell counting, and “% viability” refers to the cell number relative to the untreated control. […]
FACS was performed essentially as described previously (Mallory (2005)). […] FACS analysis was performed at the University of Kentucky flow cytometry facility, and the data were analyzed using Modfit software (Verity, Inc.).
On the technique in general: Flow cytometry measures light scatter and fluorescence of single cells or particles in a stream.

The next series relates to MDA-MB-231. As to the kind of experiment: AG-205 viability assay in MDA-MB-231 cells. It counts as cell-based. The note with it: MDA-MB-231, breast, serum-starved, EGFR wild-type. The protocol:
(A) Pgrmc1 (SEQ ID NO: 7) shares homology with AtMAPR2 (SEQ ID NO: 8) (underlined residues), which was the target for a screen for small molecule ligands. The putative heme-binding Tyr106 and Tyr112 are indicated with black boxes. (B) The molecular structure of AG-205 includes multiple aromatic components. (C) Spectroscopic scan of Pgrmc1 with vehicle control compared with vehicle plus 50 µM AG-205. The decrease in relative absorbance at 400 nm is consistent with an AG-205-induced change in the spectral properties of Pgrmc1-heme. The scan is representative of four separate scans using different Pgrmc1 protein preparations. […] Percent viability was determined by cell counting, and “% viability” refers to the cell number relative to the untreated control.
Proliferation, anchorage-independent growth and migration assays. […] Following the harvest of the final time point, the cells from each time point were counted using a Bright-line hemocytometer (Hausser Scientific).
as §2

Series [2] deals with A549 cells. As to the kind of experiment: Viability of A549 cells. It counts as cell-based, human. The method, then: (A) Pgrmc1 (SEQ ID NO: 7) shares homology with AtMAPR2 (SEQ ID NO: 8) (underlined residues), which was the target for a screen for small molecule ligands. The putative heme-binding Tyr106 and Tyr112 are indicated with black boxes. (B) The molecular structure of AG-205 includes multiple aromatic components. (C) Spectroscopic scan of Pgrmc1 with vehicle control compared with vehicle plus 50 µM AG-205. The decrease in relative absorbance at 400 nm is consistent with an AG-205-induced change in the spectral properties of Pgrmc1-heme. The scan is representative of four separate scans using different Pgrmc1 protein preparations. The lower scan is a comparison of purified Pgrmc1 without and with the vehicle control (DMSO). Panels D (A549 cells) and E (MDA-MB-231 cells) are viability assays of cells maintained in 0.1% serum (solid line) or 10% serum (dashed line) and treated with increasing doses of AG-205. Percent viability was determined by cell counting, and “% viability” refers to the cell number relative to the untreated control.
as §1
Proliferation, anchorage-independent growth and migration assays. For growth curves, cells were plated in 24 well dishes and grown in 10% serum-containing medium. At various times, the cells were harvested with trypsin and fixed with formaldehyde added to a final concentration of 3.7%. Following the harvest of the final time point, the cells from each time point were counted using a Bright-line hemocytometer (Hausser Scientific).
MTT viability assays were performed as described previously. Briefly, cells were plated in 96-well tissue culture dishes and grown in various media with different drug doses. The cells were then incubated with 0.5 mg/ml of 3-[4,5-dimethylthiazol-2-y]-2,5-diphenyltetrazolium bromide for 1.5 hours, at which time the media was removed, the precipitated crystals were dissolved in dimethyl sulfoxide, and the absorbance at 590 nm was measured using a Bio-Tek μQuant spectrophotometer.

A further series concerns EGFR. Kind of series: EGFR immunofluorescence localization in MDA-MB-468 cells. In kind it is cell-based, human. The note with it: AG-205-treated cells after 24 hours, 20 μM. The protocol:
To test this model, EGFR was stained by immunofluorescence 24 hours after treatment with 20 μM AG-205 in MDA-MB-468 cells. In cells treated with the vehicle control, EGFR localized to the cell membrane. In contrast, EGFR localized to both the cell membrane and an intracellular ring which corresponds to the perinuclear region of the cell. Also, Pgrmc1 may control the uptake from the membrane to the perinuclear region.
Immunofluorescence for EGFR was performed as described previously (Crudden et al., (2005) Tumour Biol 26:142-6). Cells were grown on chamber slides, washed and fixed with 3.7% formaldehyde. The cells were then permeabilized with 0.1% Triton X-100 in phosphate-buffered saline, blocked with 10% serum and incubated, in turn, with anti-EGFR 1005 and a Texas red-labeled anti-rabbit secondary antibody.

By IC50 is commonly meant the concentration that gives 50% inhibition.

SMILES strings stand for the structures.

With `Cc1ccc2c(c1)[C@H]1CN(C)CC[C@H]1N2C(=O)CSc1nnnn1-c1ccc(Cl)cc1` [AG-205], the IC50 with HCC827 (HCC827, lung, serum-starved, EGFR ΔE746-A750) is over 100 µM; in the series on MDA-MB-231, 18 µM; in the series on A549 cells [2] (A549, lung, serum-starved, EGFR wild-type, read-out: IC50 values for AG-205, Serum-starved), 15 µM. Besides, the “sensitivity to growth inhibition” value in the series on HCC827 (HCC827 cells, ΔE746-A750 EGFR) is “relatively insensitive”. In addition, the cell cycle distribution result in the series with A549 cells [1] is “significant G1 arrest and accumulation of sub-G1 cells”. The cell viability result with A549 cells [2] (A549 cells, 20 μM dose, 72-96 hours after treatment) is recorded as “marked loss of viability”. In the series on A549 cells [2] (A549 cells, single agent), the “decrease in viability / cells killed” value is 47%. Besides, the “cell growth inhibition” value with A549 cells [2] (A549 cells, wild-type EGFR) was “efficiently inhibited cell growth”. The “toxicity in Pgrmc1-inhibited A549 cells” value in the series on A549 cells [2] (Pgrmc1-inhibited versus control A549 cells, after 36 hours, P=0.0001) was “decreased toxicity”. The “viability of Pgrmc1-hbd-expressing cells” value in the series with A549 cells [2] (cells expressing heme binding-deficient mutant, increasing doses of AG-205, cell counting) was “partially reversed the loss of viability”. In addition, the EGFR localization entry in the series on EGFR was “EGFR localized to the perinuclear region of the cell”.
